Data on 21 compounds can be found in patent US9498467B2, “Treatment of chronic neutrophilic leukemia (CNL) and atypical chronic myeloid leukemia (aCML) by inhibitors of JAK1” (Incyte Corporation, priority 2014, dated 2016).

SMILES strings stand for the structures. Some results are limits rather than exact numbers.

Test [1] addresses T1, human JAK1 (a.a. 837-1142) (Homo sapiens, UniProt P23458).
T1 construct: human JAK1 (a.a. 837-1142); made in house; host or cells: insect cells (baculovirus)
The test can be described thus: In vitro JAK kinase assay (HTRF), JAK1. Type of test: biochemical. The following applies: 1 mM ATP.

The target in test [2] is T2, human JAK2 (a.a. 828-1132) (Homo sapiens, UniProt O60674).
T2 construct: JAK2 (a.a. 828-1132); made in house; host or cells: insect cells (baculovirus)
T2 sequence (O60674 828-1132): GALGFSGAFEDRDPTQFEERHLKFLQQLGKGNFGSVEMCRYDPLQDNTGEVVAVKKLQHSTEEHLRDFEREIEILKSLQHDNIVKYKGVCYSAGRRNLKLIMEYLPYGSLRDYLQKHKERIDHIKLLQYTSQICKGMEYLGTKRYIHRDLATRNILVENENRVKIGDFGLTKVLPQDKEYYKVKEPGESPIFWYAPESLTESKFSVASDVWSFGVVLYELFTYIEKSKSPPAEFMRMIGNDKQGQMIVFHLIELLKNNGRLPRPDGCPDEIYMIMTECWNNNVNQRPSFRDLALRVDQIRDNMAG
The test can be described thus: In vitro JAK kinase assay (HTRF), JAK2. It is filed as biochemical. The settings on record: ratio of IC50s at 1 mM ATP.

Test [3] has as its system GCSF induced pSTAT3 in human neutrophils. The test can be described thus: JAK human neutrophil assay (pSTAT3 ELISA). The settings on record: 0.25 h, read-out: IC50 (inhibition of pSTAT3).

T1 sequence (P23458 849-1154): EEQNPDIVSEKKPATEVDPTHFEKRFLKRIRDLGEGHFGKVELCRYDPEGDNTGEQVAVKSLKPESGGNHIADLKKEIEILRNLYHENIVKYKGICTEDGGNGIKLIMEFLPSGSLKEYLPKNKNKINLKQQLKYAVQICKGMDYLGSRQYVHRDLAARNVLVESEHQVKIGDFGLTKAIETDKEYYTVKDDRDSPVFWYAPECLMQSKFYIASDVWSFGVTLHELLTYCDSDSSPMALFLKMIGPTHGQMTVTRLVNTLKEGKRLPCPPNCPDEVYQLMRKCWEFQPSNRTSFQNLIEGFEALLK

With `CC(C)(O)c1cc(O[C@H]2CC[C@@H](N3CC(CC#N)(n4cc(-c5ncnc6[nH]ccc56)cn4)C3)CC2)nc(C(F)(F)F)c1` [Compound 20, {1-(cis-4-{[4-(1-hydroxy-1-methylethyl)-6-(trifluoromethyl)pyridin-2-yl]oxy}cyclohexyl)-3-[4-(7H-pyrrolo[2,3-d]pyrimidin-4-yl)-1H-pyrazol-1-yl]azetidin-3-yl}acetonitrile], the IC50 in test [1] was less than 0.01 µM. The JAK2/JAK1 in test [2] is listed as greater than 10.

In test [1], `N#CCC(C1CCN(c2cccc(Cl)n2)C1)n1cc(-c2ncnc3[nH]ccc23)cn1` (single isomer, unassigned) [Compound 3, 3-[1-(6-chloropyridin-2-yl)pyrrolidin-3-yl]-3-[4-(7H-pyrrolo[2,3-d]pyrimidin-4-yl)-1H-pyrazol-1-yl]propanenitrile] came in with an IC50 of less than 0.01 µM. In addition, in test [2], the JAK2/JAK1 is greater than 10.

For the compound `N#CCC1(n2cc(-c3ncnc4[nH]ccc34)cn2)CN([C@H]2CC[C@@H](Oc3cc(CCO)nc(C(F)(F)F)n3)CC2)C1` [Compound 18, {1-(cis-4-{[6-(2-hydroxyethyl)-2-(trifluoromethyl)pyrimidin-4-yl]oxy}cyclohexyl)-3-[4-(7H-pyrrolo[2,3-d]pyrimidin-4-yl)-1H-pyrazol-1-yl]azetidin-3-yl}acetonitrile], in test [1], the IC50 is less than 0.01 µM. Besides, in test [2], the JAK2/JAK1 is recorded as greater than 10.

For `Cc1n[nH]c(C)c1-c1cnn(C2(CC#N)CN(c3cc(F)c(C(=O)N[C@@H](C)C(F)(F)F)cc3F)C2)c1` [Compound 2, 4-[3-(cyanomethyl)-3-(3′,5′-dimethyl-1H,1′H-4,4′-bipyrazol-1-yl)azetidin-1-yl]-2,5-difluoro-N-[(1S)-2,2,2-trifluoro-1-methylethyl]benzamide], the IC50 in test [3] is less than 0.1 µM.

In test [1], `C[C@H](NC(=O)c1cc(F)c(N2CC(CC#N)(n3cc(-c4ncnc5[nH]ccc45)cn3)C2)cc1F)C(F)(F)F` [Compound 16, 4-{3-(cyanomethyl)-3-[4-(7H-pyrrolo[2,3-d]pyrimidin-4-yl)-1H-pyrazol-1-yl]azetidin-1-yl}-2,5-difluoro-N-[(1S)-2,2,2-trifluoro-1-methylethyl]benzamide] registered an IC50 of less than 0.01 µM. Moreover, in test [2], the JAK2/JAK1 is greater than 10.

In test [1], `N#CC[C@]1(n2cc(-c3ncnc4[nH]ccc34)cn2)C[C@H](N2CCC(Oc3cc(CCO)cc(C(F)(F)F)n3)CC2)C1` [Compound 26, {trans-3-(4-{[4-(2-hydroxyethyl)-6-(trifluoromethyl)pyridin-2-yl]oxy}piperidin-1-yl)-1-[4-(7H-pyrrolo[2,3-d]pyrimidin-4-yl)-1H-pyrazol-1-yl]cyclobutyl} acetonitrile] had an IC50 of less than 0.01 µM. Moreover, the JAK2/JAK1 in test [2] is recorded as greater than 10.

As to `N#CCC(CN1CCN(C(=O)c2ccc(C#N)cc2F)CC1)n1ccc(-c2ncnc3[nH]ccc23)c1` (centres unmarked) [Compound 6, 4-[(4-{3-cyano-2-[3-(7H-pyrrolo[2,3-d]pyrimidin-4-yl)-1H-pyrrol-1-yl]propyl}piperazin-1-yl)carbonyl]-3-fluorobenzonitrile], the IC50 in test [1] was less than 0.01 µM. For the same compound, in test [2], the JAK2/JAK1 is greater than 10.

With `N#CC[C@]1(n2cc(-c3ncnc4[nH]ccc34)cn2)C[C@H](N2CCC(Oc3cc(CN4CCC[C@@H]4CO)cc(C(F)(F)F)n3)CC2)C1` [Compound 13, {trans-3-(4-{[4-{[(2R)-2-(hydroxymethyl)pyrrolidin-1-yl]methyl}-6-(trifluoromethyl)pyridin-2-yl]oxy}piperidin-1-yl)-1-[4-(7H-pyrrolo[2,3-d]pyrimidin-4-yl)-1H-pyrazol-1-yl]cyclobutyl} acetonitrile], the half-inhibitory concentration (IC50) in test [1] is less than 0.01 µM. The JAK2/JAK1 in test [2] was greater than 10.

For the compound `N#CCC(C1CCN(c2nc3cccnc3o2)C1)n1cc(-c2ncnc3[nH]ccc23)cn1` (centres unmarked) [Compound 4, 3-(1-[1,3]oxazolo[5,4-b]pyridin-2-ylpyrrolidin-3-yl)-3-[4-(7H-pyrrolo[2,3-d]pyrimidin-4-yl)-1H-pyrazol-1-yl]propanenitrile], in test [1], the IC50 is less than 0.01 µM. The JAK2/JAK1 in test [2] is reported as greater than 10.

`N#CCC(CN1CCN(C(=O)c2ccc(C#N)cc2F)CC1)n1cc(-c2ncnc3[nH]ccc23)cn1` (centres unmarked) [Compound 5] gave an IC50 in test [1] of less than 0.01 µM. Further, in test [2], the JAK2/JAK1 is reported as greater than 10.

As for `C[C@@H](CO)NCc1cc(OC2CCN([C@H]3C[C@](CC#N)(n4cc(-c5ncnc6[nH]ccc56)cn4)C3)CC2)nc(C(F)(F)F)c1` [Compound 23, {trans-3-(4-{[4-({[(1S)-2-hydroxy-1-methylethyl]amino}methyl)-6-(trifluoromethyl)pyridin-2-yl]oxy}piperidin-1-yl)-1-[4-(7H-pyrrolo[2,3-d]pyrimidin-4-yl)-1H-pyrazol-1-yl]cyclobutyl} acetonitrile], the IC50 in test [1] was less than 0.01 µM. In test [2], the JAK2/JAK1 is reported as greater than 10.

In test [1], `C[C@H](O)CNCc1cc(OC2CCN([C@H]3C[C@](CC#N)(n4cc(-c5ncnc6[nH]ccc56)cn4)C3)CC2)nc(C(F)(F)F)c1` [Compound 25, {trans-3-(4-{[4-({[(2S)-2-hydroxypropyl]amino}methyl)-6-(trifluoromethyl)pyridin-2-yl]oxy}piperidin-1-yl)-1-[4-(7H-pyrrolo[2,3-d]pyrimidin-4-yl)-1H-pyrazol-1-yl]cyclobutyl} acetonitrile] gave an IC50 of less than 0.01 µM. In addition, the JAK2/JAK1 in test [2] is listed as greater than 10.

With `N#CCC1(n2cc(-c3ncnc4[nH]ccc34)cn2)CN([C@H]2CC[C@@H](Oc3cc(CN4CC[C@@H](O)C4)cc(C(F)(F)F)n3)CC2)C1` [Compound 21, {1-(cis-4-{[4-{[(3R)-3-hydroxypyrrolidin-1-yl]methyl}-6-(trifluoromethyl)pyridin-2-yl]oxy}cyclohexyl)-3-[4-(7H-pyrrolo[2,3-d]pyrimidin-4-yl)-1H-pyrazol-1-yl]azetidin-3-yl}acetonitrile], the IC50 in test [1] was less than 0.01 µM. In test [2], the JAK2/JAK1 is greater than 10.

For `N#CC[C@]1(n2cc(-c3ncnc4[nH]ccc34)cn2)C[C@H](N2CCC(Oc3cc(CN4CCC[C@H]4CO)cc(C(F)(F)F)n3)CC2)C1` [Compound 12, {trans-3-(4-{[4-{[(2S)-2-(hydroxymethyl)pyrrolidin-1-yl]methyl}-6-(trifluoromethyl)pyridin-2-yl]oxy}piperidin-1-yl)-1-[4-(7H-pyrrolo[2,3-d]pyrimidin-4-yl)-1H-pyrazol-1-yl]cyclobutyl} acetonitrile], the half-maximal inhibitory concentration (IC50) in test [1] is less than 0.01 µM. For the same compound, the JAK2/JAK1 in test [2] was greater than 10.

Take `N#CCC1(n2cc(-c3ncnc4[nH]ccc34)cn2)CN(C2CCN(C(=O)c3ccnc(C(F)(F)F)n3)CC2)C1` [Compound 9, [3-[4-(7H-pyrrolo[2,3-d]pyrimidin-4-yl)-1H-pyrazol-1-yl]-1-(1-{[2-(trifluoromethyl)pyrimidin-4-yl]carbonyl}piperidin-4-yl)azetidin-3-yl]acetonitrile]: the 50% inhibitory concentration (IC50) in test [1] was less than 0.01 µM. Besides, the JAK2/JAK1 in test [2] was greater than 10.

In test [1], `N#CCC1(n2cc(-c3ncnc4[nH]ccc34)cn2)CN(C2CCN(C(=O)Nc3ccc(F)cc3C(F)(F)F)CC2)C1` [Compound 8, 4-{3-(Cyanomethyl)-3-[4-(7H-pyrrolo[2,3-d]pyrimidin-4-yl)-1H-pyrazol-1-yl]azetidin-1-yl}-N-[4-fluoro-2-(trifluoromethyl)phenyl] piperidine-1-carboxamide] displayed a 50% inhibitory concentration (IC50) of less than 0.01 µM. The JAK2/JAK1 in test [2] was greater than 10.

The compound `N#CC[C@]1(n2cc(-c3ncnc4[nH]ccc34)cn2)C[C@H](N2CCN(C(=O)c3ccnc(C(F)(F)F)n3)CC2)C1` [Compound 10, [trans-1-[4-(7H-pyrrolo[2,3-d]pyrimidin-4-yl)-1H-pyrazol-1-yl]-3-(4-{[2-(trifluoromethyl)pyrimidin-4-yl]carbonyl}piperazin-1-yl)cyclobutyl] acetonitrile] gave an IC50 in test [1] of less than 0.01 µM. The JAK2/JAK1 in test [2] is listed as greater than 10.

Consider `N#CCC1(n2cc(-c3ncnc4[nH]ccc34)cn2)CN([C@H]2CC[C@@H](Oc3cc(CN4CC[C@H](O)C4)cc(C(F)(F)F)n3)CC2)C1` [Compound 22, {1-(cis-4-{[4-{[(3S)-3-hydroxypyrrolidin-1-yl]methyl}-6-(trifluoromethyl)pyridin-2-yl]oxy}cyclohexyl)-3-[4-(7H-pyrrolo[2,3-d]pyrimidin-4-yl)-1H-pyrazol-1-yl]azetidin-3-yl}acetonitrile], for which the half-maximal inhibitory concentration (IC50) in test [1] is less than 0.01 µM. Further, the JAK2/JAK1 in test [2] is given as greater than 10.

In turn, `CCNCc1cc(O[C@H]2CC[C@@H](N3CC(CC#N)(n4cc(-c5ncnc6[nH]ccc56)cn4)C3)CC2)nc(C(F)(F)F)c1` [Compound 19, {1-(cis-4-{[4-[(ethylamino)methyl]-6-(trifluoromethyl)pyridin-2-yl]oxy}cyclohexyl)-3-[4-(7H-pyrrolo[2,3-d]pyrimidin-4-yl)-1H-pyrazol-1-yl]azetidin-3-yl}acetonitrile] displayed an IC50 in test [1] of less than 0.01 µM. Moreover, in test [2], the JAK2/JAK1 is recorded as greater than 10.

Consider `C[C@@H](O)CNCc1cc(OC2CCN([C@H]3C[C@](CC#N)(n4cc(-c5ncnc6[nH]ccc56)cn4)C3)CC2)nc(C(F)(F)F)c1` [Compound 24, {trans-3-(4-{[4-({[(2R)-2-hydroxypropyl]amino}methyl)-6-(trifluoromethyl)pyridin-2-yl]oxy}piperidin-1-yl)-1-[4-(7H-pyrrolo[2,3-d]pyrimidin-4-yl)-1H-pyrazol-1-yl]cyclobutyl} acetonitrile], for which, in test [1], the concentration for half-maximal inhibition (IC50) is less than 0.01 µM. Moreover, the JAK2/JAK1 in test [2] is given as greater than 10.

In test [1], `N#CC[C@]1(n2cc(-c3ncnc4[nH]ccc34)cn2)C[C@H](N2CCC(Oc3cc(CN4CC(O)C4)cc(C(F)(F)F)n3)CC2)C1` [Compound 11, {trans-3-(4-{[4-[(3-hydroxyazetidin-1-yl)methyl]-6-(trifluoromethyl)pyridin-2-yl]oxy}piperidin-1-yl)-1-[4-(7H-pyrrolo[2,3-d]pyrimidin-4-yl)-1H-pyrazol-1-yl]cyclobutyl} acetonitrile] came in with a 50% inhibitory concentration (IC50) of less than 0.01 µM. Moreover, the JAK2/JAK1 in test [2] was greater than 10.
